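Grown in 96-well plates, cells were treated for 48 hours with each compound at five concentrations. Insufficient inhibition: endpoint recorded as highest concentration tested. TGI: total growth inhibition.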
system: SW-620 colon; assay: growth of human tumour cells (NCI), 48 h

| Compound | TGI |
| --- | --- |
| CN(C)C(=N)c1ccccc1 | > 100 µM |
| O=CC[C@H]1C(=O)C[C@@H]2CCC[C@@H]21 | > 100 µM |
| O=[N+]([O-])C(=C1NCCN1)/C(Cl)=C(\Cl)Br | 27.2 µM |
| COc1cc(/C=C/C(=N\NS(=O)(=O)c2ccc(C)cc2)c2sc(NNC(C)=O)nc2C)ccc1O | > 100 µM |
| Clc1cc(OC2C3CC4CC(C3)CC2C4)nc(Cl)n1 (centres undefined) | 29 µM |
| CC(=O)NNc1nc(C)c(C(=O)NNC(=O)C(=O)Nc2c(Cl)cc([N+](=O)[O-])cc2Cl)s1 | 78.5 µM |
| CC(C)CC(=O)OC[n+]1ccc(-c2c(COC(=O)NC(C)C)c(COC(=O)NC(C)C)c3n2CCC3)cc1 | > 100 µM |

system: M14 melanoma; assay: growth of human tumour cells (NCI), 48 h

| Compound | TGI |
| --- | --- |
| CN(C)C(=N)c1ccccc1 | > 100 µM |
| O=CC[C@H]1C(=O)C[C@@H]2CCC[C@@H]21 | > 100 µM |
| O=[N+]([O-])C(=C1NCCN1)/C(Cl)=C(\Cl)Br | > 100 µM |
| COc1cc(/C=C/C(=N\NS(=O)(=O)c2ccc(C)cc2)c2sc(NNC(C)=O)nc2C)ccc1O | > 100 µM |
| Clc1cc(OC2C3CC4CC(C3)CC2C4)nc(Cl)n1 (centres undefined) | 32.5 µM |
| CC(=O)NNc1nc(C)c(C(=O)NNC(=O)C(=O)Nc2c(Cl)cc([N+](=O)[O-])cc2Cl)s1 | > 100 µM |
| CC(C)CC(=O)OC[n+]1ccc(-c2c(COC(=O)NC(C)C)c(COC(=O)NC(C)C)c3n2CCC3)cc1 | > 100 µM |

system: OVCAR-3 ovarian; assay: growth of human tumour cells (NCI), 48 h

| Compound | TGI |
| --- | --- |
| CN(C)C(=N)c1ccccc1 | > 100 µM |
| O=CC[C@H]1C(=O)C[C@@H]2CCC[C@@H]21 | > 100 µM |
| O=[N+]([O-])C(=C1NCCN1)/C(Cl)=C(\Cl)Br | 38.7 µM |
| COc1cc(/C=C/C(=N\NS(=O)(=O)c2ccc(C)cc2)c2sc(NNC(C)=O)nc2C)ccc1O | > 100 µM |
| Clc1cc(OC2C3CC4CC(C3)CC2C4)nc(Cl)n1 (centres undefined) | 35.2 µM |
| CC(=O)NNc1nc(C)c(C(=O)NNC(=O)C(=O)Nc2c(Cl)cc([N+](=O)[O-])cc2Cl)s1 | 52.8 µM |
| CC(C)CC(=O)OC[n+]1ccc(-c2c(COC(=O)NC(C)C)c(COC(=O)NC(C)C)c3n2CCC3)cc1 | > 100 µM |

system: SF-539 CNS; assay: growth of human tumour cells (NCI), 48 h

| Compound | TGI |
| --- | --- |
| CN(C)C(=N)c1ccccc1 | > 100 µM |
| O=CC[C@H]1C(=O)C[C@@H]2CCC[C@@H]21 | > 100 µM |
| O=[N+]([O-])C(=C1NCCN1)/C(Cl)=C(\Cl)Br | > 100 µM |
| COc1cc(/C=C/C(=N\NS(=O)(=O)c2ccc(C)cc2)c2sc(NNC(C)=O)nc2C)ccc1O | > 100 µM |
| Clc1cc(OC2C3CC4CC(C3)CC2C4)nc(Cl)n1 (centres undefined) | 38.8 µM |
| CC(=O)NNc1nc(C)c(C(=O)NNC(=O)C(=O)Nc2c(Cl)cc([N+](=O)[O-])cc2Cl)s1 | 66.8 µM |
| CC(C)CC(=O)OC[n+]1ccc(-c2c(COC(=O)NC(C)C)c(COC(=O)NC(C)C)c3n2CCC3)cc1 | > 100 µM |

system: SF-268 CNS; assay: growth of human tumour cells (NCI), 48 h

| Compound | TGI |
| --- | --- |
| O=CC[C@H]1C(=O)C[C@@H]2CCC[C@@H]21 | > 100 µM |
| O=[N+]([O-])C(=C1NCCN1)/C(Cl)=C(\Cl)Br | > 89.9 µM |
| COc1cc(/C=C/C(=N\NS(=O)(=O)c2ccc(C)cc2)c2sc(NNC(C)=O)nc2C)ccc1O | > 100 µM |
| Clc1cc(OC2C3CC4CC(C3)CC2C4)nc(Cl)n1 (centres undefined) | 49.1 µM |
| CC(=O)NNc1nc(C)c(C(=O)NNC(=O)C(=O)Nc2c(Cl)cc([N+](=O)[O-])cc2Cl)s1 | 86.1 µM |
| CC(C)CC(=O)OC[n+]1ccc(-c2c(COC(=O)NC(C)C)c(COC(=O)NC(C)C)c3n2CCC3)cc1 | > 100 µM |

system: A549 NSCLC; assay: growth of human tumour cells (NCI), 48 h

| Compound | TGI |
| --- | --- |
| CN(C)C(=N)c1ccccc1 | > 100 µM |
| O=CC[C@H]1C(=O)C[C@@H]2CCC[C@@H]21 | > 100 µM |
| O=[N+]([O-])C(=C1NCCN1)/C(Cl)=C(\Cl)Br | > 100 µM |
| COc1cc(/C=C/C(=N\NS(=O)(=O)c2ccc(C)cc2)c2sc(NNC(C)=O)nc2C)ccc1O | > 100 µM |
| Clc1cc(OC2C3CC4CC(C3)CC2C4)nc(Cl)n1 (centres undefined) | 95.9 µM |
| CC(=O)NNc1nc(C)c(C(=O)NNC(=O)C(=O)Nc2c(Cl)cc([N+](=O)[O-])cc2Cl)s1 | > 100 µM |
| CC(C)CC(=O)OC[n+]1ccc(-c2c(COC(=O)NC(C)C)c(COC(=O)NC(C)C)c3n2CCC3)cc1 | > 100 µM |

system: MCF7 breast; assay: growth of human tumour cells (NCI), 48 h

| Compound | TGI |
| --- | --- |
| O=[N+]([O-])C(=C1NCCN1)/C(Cl)=C(\Cl)Br | > 78.7 µM |
| COc1cc(/C=C/C(=N\NS(=O)(=O)c2ccc(C)cc2)c2sc(NNC(C)=O)nc2C)ccc1O | > 100 µM |
| Clc1cc(OC2C3CC4CC(C3)CC2C4)nc(Cl)n1 (centres undefined) | 35.2 µM |
| CC(C)CC(=O)OC[n+]1ccc(-c2c(COC(=O)NC(C)C)c(COC(=O)NC(C)C)c3n2CCC3)cc1 | > 100 µM |

system: EKVX NSCLC; assay: growth of human tumour cells (NCI), 48 h

| Compound | TGI |
| --- | --- |
| O=CC[C@H]1C(=O)C[C@@H]2CCC[C@@H]21 | > 100 µM |
| O=[N+]([O-])C(=C1NCCN1)/C(Cl)=C(\Cl)Br | > 60.5 µM |
| COc1cc(/C=C/C(=N\NS(=O)(=O)c2ccc(C)cc2)c2sc(NNC(C)=O)nc2C)ccc1O | > 100 µM |
| Clc1cc(OC2C3CC4CC(C3)CC2C4)nc(Cl)n1 (centres undefined) | 29.6 µM |
| CC(=O)NNc1nc(C)c(C(=O)NNC(=O)C(=O)Nc2c(Cl)cc([N+](=O)[O-])cc2Cl)s1 | > 100 µM |
| CC(C)CC(=O)OC[n+]1ccc(-c2c(COC(=O)NC(C)C)c(COC(=O)NC(C)C)c3n2CCC3)cc1 | > 100 µM |

system: DU-145 prostate; assay: growth of human tumour cells (NCI), 48 h

| Compound | TGI |
| --- | --- |
| O=[N+]([O-])C(=C1NCCN1)/C(Cl)=C(\Cl)Br | > 100 µM |
| COc1cc(/C=C/C(=N\NS(=O)(=O)c2ccc(C)cc2)c2sc(NNC(C)=O)nc2C)ccc1O | > 100 µM |
| Clc1cc(OC2C3CC4CC(C3)CC2C4)nc(Cl)n1 (centres undefined) | 39.9 µM |
| CC(C)CC(=O)OC[n+]1ccc(-c2c(COC(=O)NC(C)C)c(COC(=O)NC(C)C)c3n2CCC3)cc1 | > 100 µM |

system: HT29 colon; assay: growth of human tumour cells (NCI), 48 h

| Compound | TGI |
| --- | --- |
| CN(C)C(=N)c1ccccc1 | > 100 µM |
| O=CC[C@H]1C(=O)C[C@@H]2CCC[C@@H]21 | > 100 µM |
| O=[N+]([O-])C(=C1NCCN1)/C(Cl)=C(\Cl)Br | > 59 µM |
| COc1cc(/C=C/C(=N\NS(=O)(=O)c2ccc(C)cc2)c2sc(NNC(C)=O)nc2C)ccc1O | > 100 µM |
| Clc1cc(OC2C3CC4CC(C3)CC2C4)nc(Cl)n1 (centres undefined) | 30.5 µM |
| CC(=O)NNc1nc(C)c(C(=O)NNC(=O)C(=O)Nc2c(Cl)cc([N+](=O)[O-])cc2Cl)s1 | > 100 µM |
| CC(C)CC(=O)OC[n+]1ccc(-c2c(COC(=O)NC(C)C)c(COC(=O)NC(C)C)c3n2CCC3)cc1 | > 100 µM |

system: KM20L2 colon; assay: growth of human tumour cells (NCI), 48 h

| Compound | TGI |
| --- | --- |
| CN(C)C(=N)c1ccccc1 | > 100 µM |
| CC(=O)NNc1nc(C)c(C(=O)NNC(=O)C(=O)Nc2c(Cl)cc([N+](=O)[O-])cc2Cl)s1 | > 100 µM |

system: MDA-N; assay: growth of human tumour cells (NCI), 48 h

| Compound | TGI |
| --- | --- |
| O=[N+]([O-])C(=C1NCCN1)/C(Cl)=C(\Cl)Br | > 100 µM |
| COc1cc(/C=C/C(=N\NS(=O)(=O)c2ccc(C)cc2)c2sc(NNC(C)=O)nc2C)ccc1O | > 100 µM |
| Clc1cc(OC2C3CC4CC(C3)CC2C4)nc(Cl)n1 (centres undefined) | 53.9 µM |
| CC(C)CC(=O)OC[n+]1ccc(-c2c(COC(=O)NC(C)C)c(COC(=O)NC(C)C)c3n2CCC3)cc1 | > 100 µM |

system: A498 renal; assay: growth of human tumour cells (NCI), 48 h

| Compound | TGI |
| --- | --- |
| O=CC[C@H]1C(=O)C[C@@H]2CCC[C@@H]21 | > 100 µM |
| O=[N+]([O-])C(=C1NCCN1)/C(Cl)=C(\Cl)Br | > 63.4 µM |
| COc1cc(/C=C/C(=N\NS(=O)(=O)c2ccc(C)cc2)c2sc(NNC(C)=O)nc2C)ccc1O | > 100 µM |
| Clc1cc(OC2C3CC4CC(C3)CC2C4)nc(Cl)n1 (centres undefined) | 39.6 µM |
| CC(=O)NNc1nc(C)c(C(=O)NNC(=O)C(=O)Nc2c(Cl)cc([N+](=O)[O-])cc2Cl)s1 | 66.3 µM |
| CC(C)CC(=O)OC[n+]1ccc(-c2c(COC(=O)NC(C)C)c(COC(=O)NC(C)C)c3n2CCC3)cc1 | > 100 µM |

system: KM12 colon; assay: growth of human tumour cells (NCI), 48 h

| Compound | TGI |
| --- | --- |
| CN(C)C(=N)c1ccccc1 | > 100 µM |
| O=CC[C@H]1C(=O)C[C@@H]2CCC[C@@H]21 | > 100 µM |
| O=[N+]([O-])C(=C1NCCN1)/C(Cl)=C(\Cl)Br | > 100 µM |
| COc1cc(/C=C/C(=N\NS(=O)(=O)c2ccc(C)cc2)c2sc(NNC(C)=O)nc2C)ccc1O | > 100 µM |
| Clc1cc(OC2C3CC4CC(C3)CC2C4)nc(Cl)n1 (centres undefined) | 39.1 µM |
| CC(=O)NNc1nc(C)c(C(=O)NNC(=O)C(=O)Nc2c(Cl)cc([N+](=O)[O-])cc2Cl)s1 | > 100 µM |
| CC(C)CC(=O)OC[n+]1ccc(-c2c(COC(=O)NC(C)C)c(COC(=O)NC(C)C)c3n2CCC3)cc1 | > 100 µM |

system: HCT-116 colon; assay: growth of human tumour cells (NCI), 48 h

| Compound | TGI |
| --- | --- |
| CN(C)C(=N)c1ccccc1 | > 100 µM |
| O=CC[C@H]1C(=O)C[C@@H]2CCC[C@@H]21 | > 100 µM |
| O=[N+]([O-])C(=C1NCCN1)/C(Cl)=C(\Cl)Br | > 73.2 µM |
| COc1cc(/C=C/C(=N\NS(=O)(=O)c2ccc(C)cc2)c2sc(NNC(C)=O)nc2C)ccc1O | > 100 µM |
| Clc1cc(OC2C3CC4CC(C3)CC2C4)nc(Cl)n1 (centres undefined) | 27.5 µM |
| CC(=O)NNc1nc(C)c(C(=O)NNC(=O)C(=O)Nc2c(Cl)cc([N+](=O)[O-])cc2Cl)s1 | > 100 µM |
| CC(C)CC(=O)OC[n+]1ccc(-c2c(COC(=O)NC(C)C)c(COC(=O)NC(C)C)c3n2CCC3)cc1 | > 100 µM |

system: OVCAR-4 ovarian; assay: growth of human tumour cells (NCI), 48 h

| Compound | TGI |
| --- | --- |
| CN(C)C(=N)c1ccccc1 | > 100 µM |
| O=CC[C@H]1C(=O)C[C@@H]2CCC[C@@H]21 | > 100 µM |
| O=[N+]([O-])C(=C1NCCN1)/C(Cl)=C(\Cl)Br | > 100 µM |
| COc1cc(/C=C/C(=N\NS(=O)(=O)c2ccc(C)cc2)c2sc(NNC(C)=O)nc2C)ccc1O | > 100 µM |
| Clc1cc(OC2C3CC4CC(C3)CC2C4)nc(Cl)n1 (centres undefined) | 34.3 µM |
| CC(=O)NNc1nc(C)c(C(=O)NNC(=O)C(=O)Nc2c(Cl)cc([N+](=O)[O-])cc2Cl)s1 | 63.2 µM |

From PubChem BioAssay (NCI)
